In patent publication US9556179B2 (BRISTOL-MYERS SQUIBB COMPANY, priority 2012, dated 2017):

How the values were obtained:
[1] = target: CK1ε (Homo sapiens (Human), UniProt P49674); assay: CK1ε kinase assay (Caliper LABCHIP electrophoretic separation of fluoresceinated peptide substrate and product); type: biochemical; settings: 200 pM enzyme, 50 μM ATP, 22 hours at room temperature
Summary of the method: (§1)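 Kinase reactions ran 22 h at room temperature, were stopped with EDTA, and phosphorylated product was separated electrophoretically from unphosphorylated fluoresceinated peptide. Compounds were tested at eleven concentrations from 10 mM DMSO stocks. IC50 by non-linear regression.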

[2] = target: CK1δ (Homo sapiens (Human), UniProt P48730); assay: CK1δ kinase assay (Caliper LABCHIP electrophoretic separation of fluoresceinated peptide substrate and product); type: biochemical; settings: 200 pM enzyme, 50 μM ATP, 22 hours at room temperature
Summary of the method: as §1

CK1δ, sequence (P48730 whole entry): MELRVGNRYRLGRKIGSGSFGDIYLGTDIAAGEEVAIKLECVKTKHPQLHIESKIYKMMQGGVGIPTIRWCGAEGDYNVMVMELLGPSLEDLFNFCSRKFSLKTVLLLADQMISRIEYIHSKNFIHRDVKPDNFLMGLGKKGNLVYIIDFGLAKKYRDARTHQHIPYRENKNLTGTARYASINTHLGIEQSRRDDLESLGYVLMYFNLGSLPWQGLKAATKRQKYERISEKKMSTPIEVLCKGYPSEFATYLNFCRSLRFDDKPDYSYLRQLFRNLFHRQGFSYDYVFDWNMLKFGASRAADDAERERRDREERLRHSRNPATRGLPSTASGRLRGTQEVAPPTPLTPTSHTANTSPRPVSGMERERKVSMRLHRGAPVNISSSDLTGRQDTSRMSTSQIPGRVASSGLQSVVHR
CK1ε, sequence (P49674 whole entry): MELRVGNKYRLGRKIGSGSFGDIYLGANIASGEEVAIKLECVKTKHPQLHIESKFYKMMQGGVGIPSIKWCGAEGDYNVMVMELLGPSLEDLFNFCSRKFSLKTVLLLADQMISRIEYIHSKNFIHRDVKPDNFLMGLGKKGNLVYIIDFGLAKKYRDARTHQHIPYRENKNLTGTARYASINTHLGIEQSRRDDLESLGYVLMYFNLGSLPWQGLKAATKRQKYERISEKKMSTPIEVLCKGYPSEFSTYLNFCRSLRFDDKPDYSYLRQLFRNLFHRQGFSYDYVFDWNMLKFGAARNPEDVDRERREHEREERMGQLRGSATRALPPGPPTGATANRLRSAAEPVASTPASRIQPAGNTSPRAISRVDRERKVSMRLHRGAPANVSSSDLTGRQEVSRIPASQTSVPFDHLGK

| Structure (SMILES) | IC50 [1] [nM] | IC50 [2] [nM] |
| --- | --- | --- |
| O=C(Nc1cn2nc(-c3c(-c4ccc(F)cc4)nc(C4CC4)n3C3CCNCC3)ccc2n1)c1ccnc(F)c1 [Compound 119, N-(6-(2-cyclopropyl-4-(4-fluorophenyl)-1-(piperidin-4-yl)-1H-imidazol-5-yl)imidazo[1,2-b]pyridazin-2-yl)-2-fluoroisonicotinamide] | 8.27 | 1.21 |
| O=C(Nc1cn2nc(-c3c(-c4ccc(F)cc4)nc(C4CC4)n3C3CCN(c4ccncc4)CC3)ccc2n1)c1ccnc(F)c1 [Compound 123, N-(6-(2-cyclopropyl-4-(4-fluorophenyl)-1-(1-(pyridin-4-yl)piperidin-4-yl)-1H-imidazol-5-yl)imidazo[1,2-b]pyridazin-2-yl)-2-fluoroisonicotinamide] | 16.7 | 2.86 |
| O=C(Nc1cn2nc(-c3c(-c4ccc(F)cc4)nc(C4CC4)n3C3CCN(S(=O)(=O)C4CC4)CC3)ccc2n1)c1ccnc(F)c1 [Compound 124, N-(6-(2-cyclopropyl-1-(1-(cyclopropylsulfonyl)piperidin-4-yl)-4-(4-fluorophenyl)-1H-imidazol-5-yl)imidazo[1,2-b]pyridazin-2-yl)-2-fluoroisonicotinamide] | 27.1 | 3.72 |
| O=C(Nc1cn2nc(-c3c(-c4ccc(F)cc4)nc(C4CC4)n3C3CCN(C(=O)Nc4ccncc4)CC3)ccc2n1)c1ccnc(F)c1 [Compound 125, N-(6-(2-cyclopropyl-4-(4-fluorophenyl)-1-(1-(pyridin-4-ylcarbamoyl)piperidin-4-yl)-1H-imidazol-5-yl)imidazo[1,2-b]pyridazin-2-yl)-2-fluoroisonicotinamide] | 6.03 | 0.95 |
| O=C(Nc1cn2nc(-c3c(-c4ccc(F)cc4)nc(C4CC4)n3C3CCN(C(=O)c4ccon4)CC3)ccc2n1)c1ccnc(F)c1 [Compound 126, N-(6-(2-cyclopropyl-4-(4-fluorophenyl)-1-(1-(isoxazole-3-carbonyl)piperidin-4-yl)-1H-imidazol-5-yl)imidazo[1,2-b]pyridazin-2-yl)-2-fluoroisonicotinamide] | 9.02 | 1.66 |
| O=C(Nc1cn2nc(-c3c(-c4ccc(F)cc4)nc(C4CC4)n3C3CCN(Cc4ccon4)CC3)ccc2n1)c1ccnc(F)c1 [Compound 128, N-(6-(2-cyclopropyl-4-(4-fluorophenyl)-1-(1-(isoxazol-3-ylmethyl)piperidin-4-yl)-1H-imidazol-5-yl)imidazo[1,2-b]pyridazin-2-yl)-2-fluoroisonicotinamide] | 6.41 | 0.301 |
| Cn1nccc1CN1CCC(n2c(C3CC3)nc(-c3ccc(F)cc3)c2-c2ccc3nc(NC(=O)c4ccnc(F)c4)cn3n2)CC1 [Compound 129, N-(6-(2-cyclopropyl-4-(4-fluorophenyl)-1-(1-((1-methyl-1H-pyrazol-5-yl)methyl)piperidin-4-yl)-1H-imidazol-5-yl)imidazo[1,2-b]pyridazin-2-yl)-2-fluoroisonicotinamide] | 19.1 | 2.28 |
| O=C(Nc1cn2nc(-c3c(-c4ccc(F)cc4)nc(C4CC4)n3C3CCN(Cc4ccncc4)CC3)ccc2n1)c1ccnc(F)c1 [Compound 131, N-(6-(2-cyclopropyl-4-(4-fluorophenyl)-1-(1-(pyridin-4-ylmethyl)piperidin-4-yl)-1H-imidazol-5-yl)imidazo [1,2-b]pyridazin-2-yl)-2-fluoroisonicotinamide] | 20.7 | 1.97 |

Further lines, results first:

| IC50 [1] [nM] | IC50 [2] [nM] | Structure (SMILES) |
| --- | --- | --- |
| 3.88 | 0.159 | O=C(Nc1cn2nc(-c3c(-c4ccc(F)cc4)ncn3C3CCN(CCC(F)(F)F)CC3)ccc2n1)c1cncs1 [Compound 115, N-(6-(4-(4-fluorophenyl)-1-(1-(3,3,3-trifluoropropyl)piperidin-4-yl)-1H-imidazol-5-yl)imidazo[1,2-b]pyridazin-2-yl)thiazole-5-carboxamide] |
| 0.372 | 0.173 | O=C(Nc1cn2nc(-c3c(-c4ccc(F)cc4)ncn3C3CCN(C(=O)c4ccon4)CC3)ccc2n1)c1cncs1 [Compound 116, N-(6-(4-(4-fluorophenyl)-1-(1-(isoxazole-3-carbonyl)piperidin-4-yl)-1H-imidazol-5-yl)imidazo[1,2-b]pyridazin-2-yl)thiazole-5-carboxamide] |
| 0.424 | 0.175 | O=C(Nc1cn2nc(-c3c(-c4ccc(F)cc4)ncn3C3CCN(C(=O)CC(F)(F)F)CC3)ccc2n1)c1cncs1 [Compound 117, N-(6-(4-(4-fluorophenyl)-1-(1-(3,3,3-trifluoropropanoyl)piperidin-4-yl)-1H-imidazol-5-yl)imidazo[1,2-b]pyridazin-2-yl)thiazole-5-carboxamide] |
| 0.182 | 0.194 | O=C(Nc1cn2nc(-c3c(-c4ccc(F)cc4)ncn3C3CCN(C[C@H](O)C(F)(F)F)CC3)ccc2n1)c1cncs1 [Compound 118, (S)—N-(6-(4-(4-fluorophenyl)-1-(1-(3,3,3-trifluoro-2-hydroxypropyl)piperidin-4-yl)-1H-imidazol-5-yl)imidazo[1,2-b]pyridazin-2-yl)thiazole-5-carboxamide] |
| 16.7 | 1.52 | COCCN1CCC(n2c(C3CC3)nc(-c3ccc(F)cc3)c2-c2ccc3nc(NC(=O)c4ccnc(F)c4)cn3n2)CC1 [Compound 120, N-(6-(2-cyclopropyl-4-(4-fluorophenyl)-1-(1-(2-methoxyethyl)piperidin-4-yl)-1H-imidazol-5-yl)imidazo[1,2-b]pyridazin-2-yl)-2-fluoroisonicotinamide] |
| 10.8 | 0.489 | NC(=O)CN1CCC(n2c(C3CC3)nc(-c3ccc(F)cc3)c2-c2ccc3nc(NC(=O)c4ccnc(F)c4)cn3n2)CC1 [Compound 121, N-(6-(1-(1-(2-amino-2-oxoethyl)piperidin-4-yl)-2-cyclopropyl-4-(4-fluorophenyl)-1H-imidazol-5-yl)imidazo [1,2-b]pyridazin-2-yl)-2-fluoroisonicotinamide] |
| 2.86 | 0.446 | N#CCCN1CCC(n2c(C3CC3)nc(-c3ccc(F)cc3)c2-c2ccc3nc(NC(=O)c4ccnc(F)c4)cn3n2)CC1 [Compound 122, N-(6-(1-(1-(2-cyanoethyl)piperidin-4-yl)-2-cyclopropyl-4-(4-fluorophenyl)-1H-imidazol-5-yl)imidazo[1,2-b]pyridazin-2-yl)-2-fluoroisonicotinamide] |
| 10.1 | 1.75 | O=C(Nc1cn2nc(-c3c(-c4ccc(F)cc4)nc(C4CC4)n3C3CCN(C(=O)CC(F)(F)F)CC3)ccc2n1)c1ccnc(F)c1 [Compound 127, N-(6-(2-cyclopropyl-4-(4-fluorophenyl)-1-(1-(3,3,3-trifluoropropanoyl)piperidin-4-yl)-1H-imidazol-5-yl)imidazo [1,2-b]pyridazin-2-yl)-2-fluoroisonicotinamide] |
| 53.3 | 3.32 | O=C(Nc1cn2nc(-c3c(-c4ccc(F)cc4)nc(C4CC4)n3C3CCN(CCC(F)(F)F)CC3)ccc2n1)c1ccnc(F)c1 [Compound 130, N-(6-(2-cyclopropyl-4-(4-fluorophenyl)-1-(1-(3,3,3-trifluoropropyl)piperidin-4-yl)-1H-imidazol-5-yl)imidazo [1,2-b]pyridazin-2-yl)-2-fluoroisonicotinamide] |
